Patent US20070249639A1, “Use of 9H-Purine-2,6-Diamine Derivatives in the Treatment of Proliferative Diseases and Novel 9H-Purine-2,6-Diamine Derivatives” (priority 2004, published 2007)

Target: T1, human topoisomerase II α (Homo sapiens, UniProt P11388)
T1 construct: purchased Professor Neil Osheroff (Vanderbilt University, Nashville, Tenn., USA)
Experiment: Topoisomerase II ATPase assay (Malachite Green)
Format: biochemical
Conditions: Percent inhibition @10 μM, Malachite Green assay; read-out: TOPO II inh. (inhibition of the TOPO ATPase activity)
Experimental: The inhibition of topoisomerase II is measured as follows:
Purified human topoisomerase II α was purchased from Professor Neil Osheroff (Vanderbilt University—Nashville, Tenn., USA).
The pUC18 (Stratagene) plasmid was introduced into Escherichia coil XL-1 (Stratagene) and purified with the HiSpeed Plasmid Purification kit (Qiagen) according to the manufacturer instructions. The purity of the DNA preparations was evaluated spectrophotometrically (OD260/OD280 ratio) and by agarose gel.
Preparation of the Malachite Green Reagent:
Three volumes of 0.045% malachite green (Sigma, catalog no. M-9636) diluted in water are mixed for 20 min at room temperature with one volume of 4.2% ammonium molybdate (Axon Lab AG, catalog no. A-2246) diluted in 4 N HCl. After mixing, Triton X-100 (Merck, catalog no. 1.12298) is added to a final concentration of 0.01%. The solution is filtered at 0.2 μm and stored at room temperature in the dark.
ATP hydrolysis was monitored by measuring the production of inorganic phosphate released during the catalytic cycle of topoisomerase II α with acidic molybdate and malachite green (Lanzetta,et al., An improved assay for nanomole amounts of inorganic phosphate, Anal Biochem 1979;100:95-7). Briefly, human topoisomerase II α is pre-incubated at 37° C. for 10 min in 90 μl reaction buffer (10 mM Tris.HCl pH 7.9, 175 mM KCl, 1 mM EDTA, 2 mM DTT, 5 mM MgCl2, 2.5% glycerol) in the presence of the indicated amount of pUC18 and DMSO in F96 maxisorp Nunclmmuno plates (Nunc). The reaction is initiated by the addition of 10 μl ATP at the indicated concentrations and is carried out for 30 min at 37° C. under constant agitation. The reaction is stopped by the addition of 200 μl molybdate/malachite green solution and the absorbance is immediately measured at 630 nm. The OD630 value is measured in the absence of protein for each ATP concentration (background) is subtracted from the value obtained in the presence of enzyme. A standard curve with inorganic phosphate is used to determine the amount of inorganic phosphate produced during the reaction and to ensure that the measures are in the linear range of the assay. The kinetic parameters of the enzymes are determined from measurements (at least in duplicate) of the initial rates at different ATP concentrations. The data are analyzed with GraFit (Erithacus Software).
The compounds are tested at 10 μM of concentration to determine their inhibition potential given % of inhibition of the TOPO II ATPase activity.
For the determination of the IC50, the procedure is repeated for different concentrations of test compound selected to cover the range of 0% to 100% inhibition and the concentration at which 50% inhibition of topoisomerase II occurs (IC50) for each compound is determined from concentration-inhibition curves in a conventional manner.

T1 sequence (P11388 whole entry): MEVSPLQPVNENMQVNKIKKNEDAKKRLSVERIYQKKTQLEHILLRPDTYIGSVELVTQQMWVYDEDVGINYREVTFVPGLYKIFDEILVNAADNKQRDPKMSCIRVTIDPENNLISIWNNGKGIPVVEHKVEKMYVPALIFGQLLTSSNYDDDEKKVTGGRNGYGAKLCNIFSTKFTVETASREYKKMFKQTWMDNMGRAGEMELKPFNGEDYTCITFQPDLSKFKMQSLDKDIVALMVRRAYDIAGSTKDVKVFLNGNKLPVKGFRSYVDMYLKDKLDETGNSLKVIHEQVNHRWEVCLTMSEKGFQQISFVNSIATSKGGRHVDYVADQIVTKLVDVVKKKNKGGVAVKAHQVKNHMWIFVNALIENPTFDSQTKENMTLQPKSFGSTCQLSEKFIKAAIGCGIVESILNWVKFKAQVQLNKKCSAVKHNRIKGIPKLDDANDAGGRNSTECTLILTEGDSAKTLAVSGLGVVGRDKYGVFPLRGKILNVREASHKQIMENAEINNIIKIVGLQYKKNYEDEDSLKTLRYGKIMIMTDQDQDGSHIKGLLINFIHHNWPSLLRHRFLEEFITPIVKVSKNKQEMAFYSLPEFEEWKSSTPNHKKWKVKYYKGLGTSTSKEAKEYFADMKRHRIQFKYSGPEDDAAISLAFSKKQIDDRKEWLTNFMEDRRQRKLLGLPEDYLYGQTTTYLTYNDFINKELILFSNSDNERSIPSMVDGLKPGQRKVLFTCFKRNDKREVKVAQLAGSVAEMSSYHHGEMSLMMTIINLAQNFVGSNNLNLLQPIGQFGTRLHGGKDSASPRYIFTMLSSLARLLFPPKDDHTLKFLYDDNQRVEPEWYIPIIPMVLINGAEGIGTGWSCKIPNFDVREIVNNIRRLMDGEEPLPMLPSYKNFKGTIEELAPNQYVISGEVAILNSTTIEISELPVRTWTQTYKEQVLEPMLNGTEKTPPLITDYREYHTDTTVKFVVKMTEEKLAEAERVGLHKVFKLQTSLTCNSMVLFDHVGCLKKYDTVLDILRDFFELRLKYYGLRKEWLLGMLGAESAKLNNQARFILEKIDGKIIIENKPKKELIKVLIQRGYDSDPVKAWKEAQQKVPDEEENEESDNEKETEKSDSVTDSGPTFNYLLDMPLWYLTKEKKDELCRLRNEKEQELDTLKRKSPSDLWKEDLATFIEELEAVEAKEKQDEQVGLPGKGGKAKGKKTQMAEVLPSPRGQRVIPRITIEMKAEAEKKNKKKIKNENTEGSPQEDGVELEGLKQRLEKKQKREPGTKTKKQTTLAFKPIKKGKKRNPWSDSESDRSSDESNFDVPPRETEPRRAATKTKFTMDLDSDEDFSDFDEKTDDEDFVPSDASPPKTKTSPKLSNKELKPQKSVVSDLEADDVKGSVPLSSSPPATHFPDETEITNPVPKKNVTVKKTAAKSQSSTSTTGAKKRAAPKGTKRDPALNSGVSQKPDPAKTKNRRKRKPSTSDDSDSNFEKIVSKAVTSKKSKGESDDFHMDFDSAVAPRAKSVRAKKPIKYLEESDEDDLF

Structure (SMILES) | inhibition at 10 µM [%]
C=C(C=Cc1nc(OCCN2CCOCC2)sc1C)Nc1nc(NC(C)(C)C)c2nc(C3CCCC3)[nH]c2n1 [Example 40, N*6*-tert-Butyl-8-cyclopentyl-N*2*-{1-methylene-3-[5-methyl-2-(2-morpholin-4-yl-ethoxy)-thiazol-4-yl]-allyl}-9H-purine-2,6-diamine] | 0
CC(C)(C)Nc1nc(Nc2ccc3ncsc3c2)nc2[nH]c(C3CC3)nc12 [Example 41, N*2*-Benzothiazol-6-yl-N*6*-tert-butyl-8-cyclopropyl-9H-purine-2,6-diamine] | 65 to 80
CC(C)(C)Nc1nc(Nc2ccc3ncsc3c2)nc2[nH]c(N)nc12 [Example 42, N*2*-Benzothiazol-6-yl-N*6*-tert-butyl-9H-purine-2,6,8-triamine] | 65 to 80
CC(C)(C)Nc1nc(Nc2ccc3ccccc3c2)nc2[nH]c(N)nc12 [Example 43, N*6*-tert-Butyl-N*2*-naphthalen-2-yl-9H-purine-2,6,8-triamine] | 65 to 80
CNc1nc2c(NC(C)(C)C)nc(Nc3ccc4ccccc4c3)nc2[nH]1 [Example 44, N*6*-tert-Butyl-N*8*-methyl-N*2*-naphthalen-2-yl-9H-purine-2,6,8-triamine] | 65 to 80
CC(=O)c1nc2c(NC(C)(C)C)nc(Nc3ccc4ncsc4c3)nc2[nH]1 [Example 45, 1-[2-(Benzothiazol-6-ylamino)-6-tert-butylamino-9H-purin-8-yl]-ethanone] | < 50
CC(C)(C)Nc1nc(Nc2ccc3ncccc3c2)nc2[nH]cnc12 [Example 46, N*6*-tert-Butyl-N*2*-quinolin-6-yl-9H-purine-2,6-diamine] | 50 to 65
CC(C)(C)Nc1nc(Nc2ccc3nsnc3c2)nc2[nH]cnc12 [Example 47, N*2*-Benzo[1,2,5]thiadiazol-5-yl-N*6*-tert-butyl-9H-purine-2,6-diamine] | < 50
c1nc2c(NC3CCCCCC3)nc(Nc3ccc4nsnc4c3)nc2[nH]1 [Example 49, N*2*-Benzo[1,2,5]thiadiazol-5-yl-N*6*-cycloheptyl-9H-purine-2,6-diamine] | < 50
Cc1nc2ccc(Nc3nc(NC4CCCCCC4)c4nc[nH]c4n3)cc2s1 [Example 50, N*6*-Cycloheptyl-N*2*-(2-methyl-benzothiazol-6-yl)-9H-purine-2,6-diamine] | 50 to 65
CCC(C)(C)Nc1nc(Nc2ccc3ncsc3c2)nc2[nH]cnc12 [Example 51, N*2*-Benzothiazol-6-yl-N*6*-(1,1-dimethyl-propyl)-9H-purine-2,6-diamine] | 50 to 65
CCC(C)(C)Nc1nc(Nc2ccc3ncccc3c2)nc2[nH]cnc12 [Example 52, N*6*-(1,1-Dimethyl-propyl)-N*2*-quinolin-6-yl-9H-purine-2,6-diamine] | < 50
CCC(C)(C)Nc1nc(Nc2ccc3nsnc3c2)nc2[nH]cnc12 [Example 53, N*2*-Benzo[1,2,5]thiadiazol-5-yl-N*6*-(1,1-dimethyl-propyl)-9H-purine-2,6-diamine] | < 50
CCC(C)(C)Nc1nc(Nc2ccc3nc(C)sc3c2)nc2[nH]cnc12 [Example 54, N*6*-(1,1-Dimethyl-propyl)-N*2*-(2-methyl-benzothiazol-6-yl)-9H-purine-2,6-diamine] | < 50
CC(C)(Cc1ccc(F)cc1)Nc1nc(Nc2ccc3ncsc3c2)nc2[nH]cnc12 [Example 55, N*2*-Benzothiazol-6-yl-N*6*-[2-(4-fluoro-phenyl)-1,1-dimethyl-ethyl]-9H-purine-2,6-diamine] | < 50
CC(C)(Cc1ccc(F)cc1)Nc1nc(Nc2ccc3ncccc3c2)nc2[nH]cnc12 [Example 56, N*6*-[2-(4-Fluoro-phenyl)-1,1-dimethyl-ethyl]-N*2*-quinolin-6-yl-9H-purine-2,6-diamine] | < 50
CC(C)(Cc1ccc(F)cc1)Nc1nc(Nc2ccc3nsnc3c2)nc2[nH]cnc12 [Example 57, N*2*-Benzo[1,2,5]thiadiazol-5-yl-N*6*-[2-(4-fluoro-phenyl)-1,1-dimethyl-ethyl]-9H-purine-2,6-diamine] | < 50

Structure (SMILES) | inhibition at 10 µM [%]
Cc1nc2ccc(Nc3nc(NC(C)(C)Cc4ccc(F)cc4)c4nc[nH]c4n3)cc2s1 [Example 58, N*6*-[2-(4-Fluoro-phenyl)-1,1-dimethyl-ethyl]-N*2*-(2-methyl-benzothiazol-6-yl)-9H-purine-2,6-diamine] | < 50
c1cncc(N2CCN(c3nc(Nc4ccc5ncsc5c4)nc4[nH]cnc34)CC2)c1 [Example 59, Benzothiazol-6-yl-[6-(4-pyridin-3-yl-piperazin-1-yl)-9H-purin-2-yl]-amine] | < 50
c1ccc(N2CCN(c3nc(Nc4ccc5ncsc5c4)nc4[nH]cnc34)CC2)nc1 [Example 60, Benzothiazol-6-yl-[6-(4-pyridin-2-yl-piperazin-1-yl)-9H-purin-2-yl]-amine] | < 50
c1ccc(N2CCN(c3nc(Nc4ccc5ncccc5c4)nc4[nH]cnc34)CC2)nc1 [Example 61, [6-(4-Pyridin-2-yl-piperazin-1-yl)-9H-purin-2-yl]-quinolin-6-yl-amine] | < 50
c1ccc(N2CCN(c3nc(Nc4ccc5nsnc5c4)nc4[nH]cnc34)CC2)nc1 [Example 62, Benzo[1,2,5]thiadiazol-5-yl-[6-(4-pyridin-2-yl-piperazin-1-yl)-9H-purin-2-yl]-amine] | < 50
Cc1nc2ccc(Nc3nc(N4CCN(c5ccccn5)CC4)c4nc[nH]c4n3)cc2s1 [Example 63, (2-Methyl-benzothiazol-6-yl)-[6-(4-pyridin-2-yl-piperazin-1-yl)-9H-purin-2-yl]-amine] | < 50
c1cnc2ccc(Nc3nc(N4CCN(c5cnccn5)CC4)c4nc[nH]c4n3)cc2c1 [Example 64, Quinolin-6-yl-[6-(2,3,5,6-tetrahydro-[1,2′]bipyrazinyl-4-yl)-9H-purin-2-yl]-amine] | < 50
CC(C)(C)Nc1nc(Nc2ccc3ncsc3c2)nc2[nH]cnc12 [Example 65, N*2*-Benzothiazol-6-yl-N*6*-tert-butyl-9H-purine-2,6-diamine] | 50 to 65
c1nc2c(NC3CCCCCC3)nc(Nc3ccc4ncsc4c3)nc2[nH]1 [Example 66, N*2*-Benzothiazol-6-yl-N*6*-cycloheptyl-9H-purine-2,6-diamine] | < 50
c1cnc2ccc(Nc3nc(NC4CCCCCC4)c4nc[nH]c4n3)cc2c1 [Example 67, N*6*-Cycloheptyl-N*2*-quinolin-6-yl-9H-purine-2,6-diamine] | < 50
CC(C)(CO)Nc1nc(Nc2ccc3ncsc3c2)nc2[nH]cnc12 [Example 68, 2-[2-(Benzothiazol-6-ylamino)-9H-purin-6-ylamino]-2-methyl-propan-1-ol] | < 50
CC(C)(C)Nc1nc(Nc2ccc3ccccc3c2)nc2[nH]c(Br)nc12 [Example 69, 8-Bromo-N*6*-tert-butyl-N*2*-naphthalen-2-yl-9H-purine-2,6-diamine] | 50 to 65
C=Cc1nc2c(NC(C)(C)C)nc(Nc3ccc4ccccc4c3)nc2[nH]1 [Example 70, N*6*-tert-Butyl-N*2*-naphthalen-2-yl-8-vinyl-9H-purine-2,6-diamine] | < 50
C=CCc1nc2c(NC(C)(C)C)nc(Nc3ccc4ccccc4c3)nc2[nH]1 [Example 71, 8-Allyl-N*6*-tert-butyl-N*2*-naphthalen-2-yl-9H-purine-2,6-diamine] | < 50
Cc1nc2c(NC(C)(C)C)nc(Nc3ccc4ccccc4c3)nc2[nH]1 [Example 72, N*6*-tert-Butyl-8-methyl-N*2*-naphthalen-2-yl-9H-purine-2,6-diamine] | < 50
CCc1nc2c(NC(C)(C)C)nc(Nc3ccc4ccccc4c3)nc2[nH]1 [Example 73, N*6*-tert-Butyl-8-ethyl-N*2*-naphthalen-2-yl-9H-purine-2,6-diamine] | < 50
CC(C)Cc1nc2c(NC(C)(C)C)nc(Nc3ccc4ccccc4c3)nc2[nH]1 [Example 74, N*6*-tert-Butyl-8-isobutyl-N*2*-naphthalen-2-yl-9H-purine-2,6-diamine] | < 50
